Assay results from ChEMBL document CHEMBL1177813, “Design and synthesis of trivalent ligands targeting opioid, cholecystokinin, and melanocortin receptors for the treatment of pain” (Bioorg Med Chem Lett, 2010).
Calls of active or inactive are those of the source. No cut-off for these calls is given here. Where a SMILES comes first, the peptide text is derived from it. [ ]: non-standard residue; d: D form. Nle = CCCC[C@H](N)C(=O)O

Columns and labels:
[1] = molecular target: Melanocortin receptor 4 (Homo sapiens, UniProt P32245); experiment: Displacement of Eu-NDP-alphaMSH from human MC4 receptor expressed in human HEK293 cells; assay type: cell-based
Sequence of Melanocortin receptor 4 (P32245 whole entry): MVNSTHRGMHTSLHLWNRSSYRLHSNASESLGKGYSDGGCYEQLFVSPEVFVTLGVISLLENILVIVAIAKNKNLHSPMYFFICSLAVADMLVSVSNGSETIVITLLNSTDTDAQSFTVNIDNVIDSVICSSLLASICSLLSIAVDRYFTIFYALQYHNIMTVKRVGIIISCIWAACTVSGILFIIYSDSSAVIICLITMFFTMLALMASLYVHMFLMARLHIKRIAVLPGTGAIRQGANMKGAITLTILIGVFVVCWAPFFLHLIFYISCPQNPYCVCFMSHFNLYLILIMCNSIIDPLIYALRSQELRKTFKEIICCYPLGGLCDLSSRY

[2] = molecular target: Mu-type opioid receptor (Rattus norvegicus, UniProt P33535); experiment: Displacement of [3H]DAMGO from rat mu opioid receptor expressed in mouse HN9.10 cells; assay type: cell-based
Sequence of Mu-type opioid receptor (Rattus norvegicus, UniProt P33535) (P33535 whole entry): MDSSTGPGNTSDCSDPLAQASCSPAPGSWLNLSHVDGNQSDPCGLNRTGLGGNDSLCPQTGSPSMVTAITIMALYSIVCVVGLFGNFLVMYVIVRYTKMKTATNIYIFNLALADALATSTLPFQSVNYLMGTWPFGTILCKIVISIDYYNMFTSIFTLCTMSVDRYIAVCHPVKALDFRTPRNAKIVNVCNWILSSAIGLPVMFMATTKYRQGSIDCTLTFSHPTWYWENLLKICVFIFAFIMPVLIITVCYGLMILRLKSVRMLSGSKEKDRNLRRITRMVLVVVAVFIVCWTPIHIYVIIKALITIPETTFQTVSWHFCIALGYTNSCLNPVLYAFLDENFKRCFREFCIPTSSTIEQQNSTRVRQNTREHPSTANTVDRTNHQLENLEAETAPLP

[3] = molecular target: Mu-type opioid receptor (Cavia porcellus, UniProt P97266); experiment: Agonist activity at mu opioid receptor in guinea pig ileum assessed as inhibition of electrically-stimulated muscle contraction; assay type: functional, tissue-based
Sequence of Mu-type opioid receptor (Cavia porcellus, UniProt P97266) (P97266 whole entry): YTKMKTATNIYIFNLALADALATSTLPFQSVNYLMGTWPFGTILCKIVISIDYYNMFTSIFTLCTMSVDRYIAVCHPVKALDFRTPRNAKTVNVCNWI

[4] = molecular target: Delta-type opioid receptor (Mus musculus, UniProt P32300); experiment: Agonist activity at delta opioid receptor in mouse vas deferens assessed as inhibition of electrically-stimulated muscle contraction; assay type: functional, tissue-based
Sequence of Delta-type opioid receptor (Mus musculus, UniProt P32300) (P32300 whole entry): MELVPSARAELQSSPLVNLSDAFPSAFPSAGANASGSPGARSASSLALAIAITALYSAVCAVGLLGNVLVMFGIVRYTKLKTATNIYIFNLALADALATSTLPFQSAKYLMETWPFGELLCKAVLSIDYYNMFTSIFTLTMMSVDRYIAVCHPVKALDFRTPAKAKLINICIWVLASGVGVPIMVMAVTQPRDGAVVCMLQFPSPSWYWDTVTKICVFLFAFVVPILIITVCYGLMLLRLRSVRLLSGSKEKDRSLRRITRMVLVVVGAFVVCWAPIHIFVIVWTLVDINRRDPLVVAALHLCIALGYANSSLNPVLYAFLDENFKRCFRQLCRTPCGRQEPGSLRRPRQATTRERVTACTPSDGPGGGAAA

[5] = molecular target: T1, Cholecystokinin receptor type A (Homo sapiens, UniProt P32238); experiment: Displacement of [125I]CCK-8(SO3) from human CCK1 receptor expressed in human HEK293 cells; assay type: cell-based
T1 sequence (P32238 whole entry): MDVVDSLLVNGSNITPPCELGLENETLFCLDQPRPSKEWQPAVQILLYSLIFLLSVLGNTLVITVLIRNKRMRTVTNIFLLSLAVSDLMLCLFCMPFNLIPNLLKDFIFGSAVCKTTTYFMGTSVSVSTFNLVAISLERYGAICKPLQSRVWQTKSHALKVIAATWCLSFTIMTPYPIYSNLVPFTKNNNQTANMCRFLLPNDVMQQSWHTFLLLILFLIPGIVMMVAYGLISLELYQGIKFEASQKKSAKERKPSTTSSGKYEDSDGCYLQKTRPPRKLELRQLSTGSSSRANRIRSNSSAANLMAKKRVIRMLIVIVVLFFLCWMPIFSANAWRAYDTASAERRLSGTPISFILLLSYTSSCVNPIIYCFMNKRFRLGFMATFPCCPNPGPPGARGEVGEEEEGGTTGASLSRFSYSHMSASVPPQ

[6] = molecular target: Delta-type opioid receptor (Homo sapiens, UniProt P41143); experiment: Displacement of [3H]DPDPE from human delta opioid receptor expressed in mouse HN9.10 cells; assay type: cell-based
Sequence of Delta-type opioid receptor (Homo sapiens, UniProt P41143) (P41143 whole entry): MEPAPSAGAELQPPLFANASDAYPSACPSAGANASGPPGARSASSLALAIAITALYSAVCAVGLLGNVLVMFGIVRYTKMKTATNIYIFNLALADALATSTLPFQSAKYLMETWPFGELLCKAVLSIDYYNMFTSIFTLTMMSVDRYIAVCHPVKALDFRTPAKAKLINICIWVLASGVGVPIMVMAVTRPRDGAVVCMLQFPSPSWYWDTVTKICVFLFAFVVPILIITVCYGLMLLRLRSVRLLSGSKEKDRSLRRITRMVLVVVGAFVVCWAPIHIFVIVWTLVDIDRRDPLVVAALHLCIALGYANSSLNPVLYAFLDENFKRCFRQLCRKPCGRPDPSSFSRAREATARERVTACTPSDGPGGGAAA

[7] = molecular target: T2, Gastrin/cholecystokinin type B receptor (Homo sapiens, UniProt P32239); experiment: Displacement of [125I]CCK-8(SO3) from human CCK2 receptor expressed in human HEK293 cells; assay type: cell-based
T2 sequence (P32239 whole entry): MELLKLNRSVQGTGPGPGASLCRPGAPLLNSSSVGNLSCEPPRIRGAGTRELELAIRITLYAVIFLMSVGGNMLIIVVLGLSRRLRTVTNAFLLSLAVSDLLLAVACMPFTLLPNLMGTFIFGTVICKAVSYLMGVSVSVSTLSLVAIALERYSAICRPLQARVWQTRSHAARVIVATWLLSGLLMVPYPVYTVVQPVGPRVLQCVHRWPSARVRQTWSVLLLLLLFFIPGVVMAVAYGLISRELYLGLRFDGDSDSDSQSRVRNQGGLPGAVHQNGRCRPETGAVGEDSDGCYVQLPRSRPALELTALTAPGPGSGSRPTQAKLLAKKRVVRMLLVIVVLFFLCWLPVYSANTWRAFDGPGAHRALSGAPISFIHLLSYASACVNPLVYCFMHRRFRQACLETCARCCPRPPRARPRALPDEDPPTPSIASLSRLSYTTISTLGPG

[8] = species on record: Cavia porcellus; experiment: […] activity at CCK receptor in Hartley guinea pig ileum longitudinal muscle with myenteric plexus assessed as inhibition of CCK8-stimulated muscle contraction at 1 uM; assay type: functional, tissue-based
[9] = Agonist activity at CCK receptor in Hartley guinea pig ileum longitudinal muscle with myenteric plexus assessed as inhibition of electrically-stimulated muscle contraction at 1 uM relative to KCl; assay type: functional, Cavia porcellus; design: scale not given: the % may be the effect or the level left
[10] = species on record: Homo sapiens; experiment: Selectivity ratio of Ki for human CCK1 receptor to Ki for human CCk2 receptor
[11] = […] activity at CCK receptor in Hartley guinea pig ileum longitudinal muscle with myenteric plexus assessed as inhibition of CCK8-stimulated muscle contraction; assay type: functional, Cavia porcellus
[12] = molecular target: Mu-type opioid receptor (Cavia porcellus) (UniProt P97266); experiment: Agonist activity at mu opioid receptor in guinea pig ileum assessed as inhibition of electrically-stimulated muscle contraction at 1 uM; assay type: functional, tissue-based; design: scale not given: the % may be the effect or the level left
Sequence of Mu-type opioid receptor (Cavia porcellus) (P97266 whole entry): as the sequence (P97266 whole entry) above

[13] = molecular target: Delta-type opioid receptor (Mus musculus) (UniProt P32300); experiment: Agonist activity at delta opioid receptor in mouse vas deferens assessed as inhibition of electrically-stimulated muscle contraction at 1 uM; assay type: functional, tissue-based; design: scale not given: the % may be the effect or the level left
Sequence of Delta-type opioid receptor (Mus musculus) (P32300 whole entry): as the sequence (P32300 whole entry) above

| Compound | IC50 [1] [µM] | IC50 [2] [µM] | Ki [2] [µM] | IC50 [3] [µM] | IC50 [4] [µM] | IC50 [5] [µM] | IC50 [6] [µM] | Ki [6] [µM] | IC50 [7] [µM] | Ki ([7]; read-out: Ki) [µM] | Ke [8] | Activity [9] [%] | Ki ([7]; hek293) | Ki ([5]; read-out: Ki) [µM] | Ratio Ki [10] | Ki ([5]; hek293) | Ke [11] [nM] | Activity [12] [%] | Activity [13] [%] |
| --- | --- | --- | --- | --- | --- | --- | --- | --- | --- | --- | --- | --- | --- | --- | --- | --- | --- | --- | --- |
| CCCC[C@H](NC(=O)[C@H](Cc1c[nH]c2ccccc12)NC(=O)[C@H](CCCN=C(N)N)NC(=O)[C@@H](Cc1ccc2ccccc2c1)NC(=O)[C@H](Cc1cnc[nH]1)NC(=O)[C@@H](N)Cc1ccccc1)C(N)=O | 0.2 |  |  |  |  |  |  |  |  |  |  |  |  |  |  |  |  |  |  |
| CCCC[C@H](NC(=O)[C@H](Cc1c[nH]c2ccccc12)NC(=O)[C@H](CCCN=C(N)N)NC(=O)[C@@H](Cc1ccc2ccccc2c1)NC(=O)[C@H](Cc1cnc[nH]1)NC(=O)[C@H](Cc1ccccc1)NC(=O)[C@@H](C)NC(=O)[C@@H](N)Cc1c(C)cc(O)cc1C)C(=O)N[C@@H](CC(=O)O)C(=O)N[C@@H](Cc1ccccc1)C(N)=O | 0.5 | 0.01 | 0.0049 | 0.066 | 0.11 | 0.000794 | 0.00794 | 0.0037 | 0.2 | 0.18 |  |  |  |  |  |  |  |  |  |
| Cc1cc(O)cc(C)c1C[C@H](N)C(=O)N1CC(=O)N[C@@H](Cc2cnc[nH]2)C(=O)N[C@H](Cc2ccccc2)C(=O)N[C@@H](CCCNC(=N)N)C(=O)N[C@@H](Cc2c[nH]c3ccccc23)C(=O)N[C@H](C(=O)N[C@@H](CC(=O)O)C(=O)N[C@@H](Cc2ccccc2)C(N)=O)CSSC[C@@H](N)C1=O |  |  |  |  |  |  |  |  |  |  | inactive | 0 | Not Active |  |  |  |  |  |  |
| C[C@@H](NC(=O)[C@@H](N)Cc1ccc(O)cc1)C(=O)NCC(=O)N[C@@H](Cc1ccccc1)C(=O)NCCCC[C@H](NC(=O)[C@H](Cc1c[nH]c2ccccc12)NC(=O)[C@H](CCCN=C(N)N)NC(=O)[C@@H](Cc1ccc(Cl)cc1)NC(=O)[C@@H](N)Cc1cnc[nH]1)C(=O)N[C@@H](CC(=O)O)C(=O)N[C@@H](Cc1ccccc1)C(N)=O |  |  |  | 0.33 |  |  |  |  |  |  |  |  |  |  |  |  |  |  |  |
| CCCC[C@H](NC(=O)[C@H](Cc1c[nH]c2ccccc12)NC(=O)[C@H](CCCNC(=N)N)NC(=O)[C@@H](Cc1ccc2ccccc2c1)NC(=O)[C@H](Cc1cnc[nH]1)NC(=O)[C@H]1Cc2ccccc2CN1C(=O)[C@@H](N)Cc1c(C)cc(O)cc1C)C(=O)N[C@@H](CC(=O)O)C(=O)N[C@@H](Cc1ccccc1)C(N)=O |  |  |  |  |  |  |  |  |  |  | inactive | 0 |  |  |  |  |  |  |  |
| CCCC[C@H](NC(=O)[C@H](Cc1c[nH]c2ccccc12)NC(=O)[C@H](CCCNC(=N)N)NC(=O)[C@@H](Cc1ccc2ccccc2c1)NC(=O)[C@H](Cc1cnc[nH]1)NC(=O)[C@H](Cc1ccccc1)NC(=O)CNC(=O)[C@@H](C)NC(=O)[C@@H](N)Cc1ccc(O)cc1)C(=O)N[C@@H](CC(=O)O)C(=O)N[C@@H](Cc1ccccc1)C(N)=O | 0.26 | 0.00126 | 0.00069 | 0.2 | 0.06 | 0.01 | 0.00631 | 0.0029 | 0.126 | 0.12 | inactive | 0 |  | 0.009 | 0.075 |  |  |  |  |
| CCCC[C@H](NC(=O)[C@H](Cc1c[nH]c2ccccc12)NC(=O)[C@H](CCCN=C(N)N)NC(=O)[C@@H](Cc1ccc2ccccc2c1)NC(=O)[C@H](Cc1cnc[nH]1)NC(=O)[C@H]1Cc2ccccc2CN1C(=O)[C@@H](N)Cc1c(C)cc(O)cc1C)C(=O)N[C@@H](CC(=O)O)C(=O)N[C@@H](Cc1ccccc1)C(N)=O | 0.16 | 0.0398 | 0.018 | 0.57 | 0.13 | 0.0316 | 0.0126 | 0.0062 | 0.126 | 0.1 |  |  |  | 0.032 |  |  |  |  |  |
| Cc1cc(O)cc(C)c1C[C@H](N)C(=O)N1CC(=O)N[C@@H](Cc2cnc[nH]2)C(=O)N[C@H](Cc2ccc3ccccc3c2)C(=O)N[C@@H](CCCNC(=N)N)C(=O)N[C@@H](Cc2c[nH]c3ccccc23)C(=O)N[C@H](C(=O)N[C@@H](CC(=O)O)C(=O)N[C@@H](Cc2ccccc2)C(N)=O)CSSC[C@@H](N)C1=O | 0.44 | 0.0126 | 0.0059 | 0.28 | 0.61 |  | 0.0126 | 0.0056 |  |  | inactive | 0 | Not Active |  |  | Not Active |  |  |  |
| CCCC[C@H](NC(=O)[C@H](Cc1c[nH]c2ccccc12)NC(=O)[C@H](CCCNC(=N)N)NC(=O)[C@@H](Cc1ccc2ccccc2c1)NC(=O)[C@H](Cc1cnc[nH]1)NC(=O)[C@H](Cc1ccccc1)NC(=O)CNC(=O)[C@@H](C)NC(=O)[C@@H](N)Cc1c(C)cc(O)cc1C)C(=O)N[C@@H](CC(=O)O)C(=O)N[C@@H](Cc1ccccc1)C(N)=O | 0.16 | 0.000251 | 0.00013 | 0.0083 | 0.011 | 0.02 |  |  | 0.126 | 0.11 |  | 0 |  | 0.018 |  |  | 940 |  |  |
| N=C(N)NCCC[C@@H]1NC(=O)[C@H](Cc2ccc(Cl)cc2)NC(=O)[C@H](Cc2cnc[nH]2)NC(=O)CNC(=O)[C@H](NC(=O)[C@@H](N)Cc2ccc(O)cc2)CC(=O)NCCCC[C@@H](C(=O)N[C@@H](CC(=O)O)C(=O)N[C@H](Cc2ccccc2)C(N)=O)NC(=O)[C@H](Cc2cc3ccccc3[nH]2)NC1=O | 0.032 | 3.98 | 2.1 |  |  | 0.126 | 2.51 | 1.3 | 1 | 0.93 | inactive | 0 |  | 0.56 |  |  |  | 0 | 16 |
| CCCC[C@H](NC(=O)[C@@H](N)Cc1ccc(O)cc1)C(=O)N[C@@H](CC(=O)O)C(=O)N[C@@H](Cc1ccccc1)C(N)=O (H-Y[Nle]DF-NH2) |  |  |  |  |  |  |  |  |  |  |  |  |  |  |  | Not Active |  |  |  |
| CCCC[C@H](NC(=O)[C@H](Cc1c[nH]c2ccccc12)NC(=O)[C@H](CCCNC(=N)N)NC(=O)[C@@H](Cc1ccc2ccccc2c1)NC(=O)[C@H](Cc1cnc[nH]1)NC(=O)[C@H](Cc1ccccc1)NC(=O)[C@@H](C)NC(=O)[C@@H](N)Cc1c(C)cc(O)cc1C)C(=O)N[C@@H](CC(=O)O)C(=O)N[C@@H](Cc1ccccc1)C(N)=O |  |  |  |  |  |  |  |  |  |  | inactive | 0 |  |  |  |  |  |  |  |
| CCCC[C@H](NC(=O)[C@H](Cc1c[nH]c2ccccc12)NC(=O)[C@H](CCCNC(=N)N)NC(=O)[C@@H](Cc1ccc2ccccc2c1)NC(=O)[C@H](Cc1cnc[nH]1)NC(=O)[C@H](Cc1ccccc1)NC(=O)[C@@H](C)NC(=O)[C@@H](N)Cc1ccc(O)cc1)C(=O)N[C@@H](CC(=O)O)C(=O)N[C@@H](Cc1ccccc1)C(N)=O | 0.7 | 0.501 | 0.25 | 2.3 | 0.37 | 0.00158 | 0.0794 | 0.042 | 0.2 | 0.19 | inactive | 0 |  | 0.0016 | 119 |  |  |  |  |
| C[C@@H](NC(=O)[C@@H](N)Cc1ccc(O)cc1)C(=O)NCC(=O)N[C@@H](Cc1ccccc1)C(=O)NCCCC[C@H](NC(=O)[C@H](Cc1c[nH]c2ccccc12)NC(=O)[C@H](CCCNC(=N)N)NC(=O)[C@@H](Cc1ccc(Cl)cc1)NC(=O)[C@@H](N)Cc1cnc[nH]1)C(=O)N[C@@H](CC(=O)O)C(=O)N[C@@H](Cc1ccccc1)C(N)=O |  |  |  |  |  |  |  |  |  |  | inactive | 0 | Not Active |  |  | Not Active |  |  |  |
| CCCC[C@H](NC(=O)[C@H](Cc1c[nH]c2ccccc12)NC(=O)[C@H](CCCNC(=N)N)NC(=O)[C@@H](Cc1ccccc1)NC(=O)[C@H](Cc1cnc[nH]1)NC(=O)[C@H](Cc1ccccc1)NC(=O)CNC(=O)[C@@H](C)NC(=O)[C@@H](N)Cc1ccc(O)cc1)C(=O)N[C@@H](CC(=O)O)C(=O)N[C@@H](Cc1ccccc1)C(N)=O | 1.3 | 0.0316 | 0.014 | 0.13 | 0.04 | 2.51 | 0.0126 | 0.0062 | 0.0316 | 0.018 | inactive | 0 |  | 1.4 |  |  |  |  |  |
